Test results reported in patent US20130197089A1, “COMPOSITIONS FOR THE TREATMENT OF ACTINIC KERATOSIS” (DOLORGIET GMBH & CO. KG, priority 2012, published 2013).

Tests used:
[1] = tested on: actinic keratosis lesions; assay: Preliminary study: 5% ibuprofen gel vs 3% diclofenac gel in patients with actinic keratosis; conditions: for Development of new lesions during treatment: 90 days of treatment; for Investigator global improvement index (IGII): scale -2 to +4; for Average number of lesions at the start of the study: baseline; for Average number of lesions (total): all areas; for Severity of the lesions (BSI score): during the 90 days of treatment
Method: The study was performed according to the relevant criteria and was approved by the ethics commission of the dermatological society of Slovakia.
(§1) The application frequency was twice a day. The success of the treatment was evaluated after 30, 60 and 90 days.
(§2) When included in the study, the severity of the lesions was evaluated according to the so-called BSI (baseline severity index) score from 0 to 3. Patients having a BSI score of 1 and 2 were exclusively included in the study.
BSI score (baseline severity index score 1-3) • 0=no actinic keratosis (AK) visible • 1=clearly visible lesion • 2=many small, moderately thick lesions or a few large scaly lesions visible • 3=many thick hypertrophic lesions that are clearly visible and palpable with clear bounds.
(§3) The main target parameters within the scope of effectiveness were the total number of lesions in the treatment area and the IGII (investigator global improvement index) score from −2 to +4. From round 1, the evaluations were always done in comparison with the preliminary round.
(§4) IGII (investigator global improvement index) • −2 significant worsening • −1 slight worsening • 0 unchanged • 1 slight improvement • 2 improvement • 3 significant improvement • 4 complete healing
The IGII was measured between each two rounds.

[2] = cited from earlier work
[3] = tested on: actinic keratosis lesions; assay: Second study: 10% ibuprofen gel vs 3% diclofenac gel in patients with actinic keratosis; conditions: for Investigator global improvement index (IGII) / Average IGII at the end of the treatment time: scale -2 to +4; for Average number of lesions at the start of the study: baseline; for Average IGII at the end of the treatment time: all areas
Method: as §1, §2, §3, §4
The design of the study was the same as that of the first study.

[4] = 5% ibuprofen gel or 3% diclofenac gel
[5] = Face, 90 days, 5% ibuprofen gel or 3% diclofenac gel twice a day
[6] = Face, 5% ibuprofen gel or 3% diclofenac gel
[7] = Forehead, 90 days, 5% ibuprofen gel or 3% diclofenac gel twice a day
[8] = Forehead, V0 (start of the study)
[9] = Forehead, 5% ibuprofen gel or 3% diclofenac gel twice a day, 12 patients per group
[10] = Hands, 90 days, 5% ibuprofen gel or 3% diclofenac gel twice a day
[11] = Hands, 5% ibuprofen gel or 3% diclofenac gel
[12] = Scalp, 90 days, 5% ibuprofen gel or 3% diclofenac gel twice a day
[13] = Scalp, 5% ibuprofen gel or 3% diclofenac gel
[14] = after 90 days of treatment, 5% ibuprofen gel or 3% diclofenac gel twice a day
[15] = start of study, 5% ibuprofen gel or 3% diclofenac gel
[16] = Face, 90 days, 10% ibuprofen gel or 3% diclofenac gel
[17] = Face, 10% ibuprofen gel or 3% diclofenac gel
[18] = Forehead, 90 days, 10% ibuprofen gel or 3% diclofenac gel
[19] = Forehead, 10% ibuprofen gel or 3% diclofenac gel, 6 patients per group
[20] = Hands, 90 days, 10% ibuprofen gel or 3% diclofenac gel
[21] = Hands, 10% ibuprofen gel or 3% diclofenac gel
[22] = 90 days, 10% ibuprofen gel or 3% diclofenac gel
[23] = beginning of the treatment, 10% ibuprofen gel or 3% diclofenac gel
[24] = end of the 90 days of treatment, 10% ibuprofen gel or 3% diclofenac gel

## CC(C)Cc1ccc(C(C)C(=O)O)cc1 (stereo not drawn) [Ibuprofen, ibuprofen]
[1]; [4]
  Development of new lesions during treatment: None of the patients developed new lesions
  Severity of the lesions (BSI score): remained virtually unchanged
[1]; [5]
  Average number of lesions after 90 days of treatment: 4.8
[1]; Face, V0 (start of the study)
  Investigator global improvement index (IGII): 0
[1]; Face, V3 (after 90 days of treatment), 5% ibuprofen gel or 3% diclofenac gel
  Investigator global improvement index (IGII): 1.38
[1]; [6]
  Average number of lesions at the start of the study: 5.7
[1]; [7]
  Average number of lesions after 90 days of treatment: 4
[1]; [8]
  Investigator global improvement index (IGII): 0
[1]; Forehead, V3 (after 90 days of treatment), 5% ibuprofen gel or 3% diclofenac gel
  Investigator global improvement index (IGII): 1.33
[1]; [9]
  Average number of lesions at the start of the study: 4.6
[1]; Hand, V0 (start of the study)
  Investigator global improvement index (IGII): 0
[1]; Hand, V3 (after 90 days of treatment), 5% ibuprofen gel or 3% diclofenac gel
  Investigator global improvement index (IGII): 1
[1]; [10]
  Average number of lesions after 90 days of treatment: 16.9
[1]; [11]
  Average number of lesions at the start of the study: 18.5
[1]; [12]
  Average number of lesions after 90 days of treatment: 6
[1]; Scalp, V0 (start of the study)
  Investigator global improvement index (IGII): 0
[1]; Scalp, V3 (after 90 days of treatment), 5% ibuprofen gel or 3% diclofenac gel
  Investigator global improvement index (IGII): 1
[1]; [13]
  Average number of lesions at the start of the study: 6.3
[1]; [14]
  Average number of lesions (total): 31.7
[1]; [15]
  Average number of lesions (total): 35.1
[1]; human, in vivo
  Tolerability of the therapy: well tolerated
  Undesirable side effects: No undesirable side effects
[2]; systemic effect
  Plasma level necessary for a general systemic effect: ≥ 10000 ng/mL
[2]; topical application
  Plasma level reached in topical application: about 2 μg/ml
[3]; 10% ibuprofen gel or 3% diclofenac gel, 90 days
  Therapeutic result in treating slight and moderate keratosis lesions (in words): pronounced effectiveness
[3]; [16]
  Average number of lesions after 90 days of treatment: 0.7
[3]; Face, V0 (start of the study)
  Investigator global improvement index (IGII): 0
[3]; Face, V3 (after 90 days of treatment), 10% ibuprofen gel or 3% diclofenac gel
  Investigator global improvement index (IGII): 3.7
[3]; [17]
  Average number of lesions at the start of the study: 5.2
[3]; [18]
  Average number of lesions after 90 days of treatment: 0.3
[3]; [8]
  Investigator global improvement index (IGII): 0
[3]; Forehead, V3 (after 90 days of treatment), 10% ibuprofen gel or 3% diclofenac gel
  Investigator global improvement index (IGII): 3.8
[3]; [19]
  Average number of lesions at the start of the study: 3.3
[3]; Hand, V0 (start of the study)
  Investigator global improvement index (IGII): 0
[3]; Hand, V3 (after 90 days of treatment), 10% ibuprofen gel or 3% diclofenac gel
  Investigator global improvement index (IGII): 3.6
[3]; [20]
  Average number of lesions after 90 days of treatment: 2.7
[3]; [21]
  Average number of lesions at the start of the study: 9.5
[3]; [22]
  Average IGII at the end of the treatment time: 3.7
[3]; [23]
  Total number of lesions: 18
[3]; [24]
  Total number of lesions: 3.7
[3]; end of the 90 days of treatment, 10% ibuprofen gel, six patients in group
  Patients completely freed from the optically visible lesions: three
[3]; human, in vivo
  Tolerability: very good

## O=C(O)Cc1ccccc1Nc1c(Cl)cccc1Cl [Diclofenac, diclofenac]
[1]; [4]
  Development of new lesions during treatment: None of the patients developed new lesions
  Severity of the lesions (BSI score): remained virtually unchanged
[1]; [5]
  Average number of lesions after 90 days of treatment: 5.5
[1]; [6]
  Average number of lesions at the start of the study: 7
[1]; [7]
  Average number of lesions after 90 days of treatment: 5.3
[1]; [9]
  Average number of lesions at the start of the study: 7.1
[1]; [10]
  Average number of lesions after 90 days of treatment: 17.1
[1]; [11]
  Average number of lesions at the start of the study: 18.1
[1]; [12]
  Average number of lesions after 90 days of treatment: 11.5
[1]; [13]
  Average number of lesions at the start of the study: 15.8
[1]; [14]
  Average number of lesions (total): 39.4
[1]; [15]
  Average number of lesions (total): 48
[1]; during the study, topical 5% ibuprofen gel or 3% diclofenac gel twice a day, 90 days
  Undesirable side effects: No undesirable side effects
[1]; topical 5% ibuprofen gel or 3% diclofenac gel twice a day, 90 days
  Tolerability of the therapy: well tolerated
[3]; 10% ibuprofen gel or 3% diclofenac gel, 90 days topical
  Tolerability: very good
[3]; [16]
  Average number of lesions after 90 days of treatment: 6.2
[3]; [17]
  Average number of lesions at the start of the study: 12.3
[3]; [18]
  Average number of lesions after 90 days of treatment: 4.2
[3]; [19]
  Average number of lesions at the start of the study: 7.5
[3]; [20]
  Average number of lesions after 90 days of treatment: 8.8
[3]; [21]
  Average number of lesions at the start of the study: 17
[3]; [22]
  Average IGII at the end of the treatment time: 2.29
[3]; [23]
  Total number of lesions: 36.8
[3]; [24]
  Total number of lesions: 19.2
